molecular target: T1, human RXFP1 (Homo sapiens, UniProt Q9HBX9); experiment: RXFP1 cyclic adenosine monophosphate (cAMP) assay, hRXFP1 HEK293; assay type: cell-based; conditions: HEK293 cells stably expressing human RXFP1; 30 min at room temperature; HTRF cAMP
T1 construct: expressed in transfected cells
T1 sequence (Q9HBX9 1-757): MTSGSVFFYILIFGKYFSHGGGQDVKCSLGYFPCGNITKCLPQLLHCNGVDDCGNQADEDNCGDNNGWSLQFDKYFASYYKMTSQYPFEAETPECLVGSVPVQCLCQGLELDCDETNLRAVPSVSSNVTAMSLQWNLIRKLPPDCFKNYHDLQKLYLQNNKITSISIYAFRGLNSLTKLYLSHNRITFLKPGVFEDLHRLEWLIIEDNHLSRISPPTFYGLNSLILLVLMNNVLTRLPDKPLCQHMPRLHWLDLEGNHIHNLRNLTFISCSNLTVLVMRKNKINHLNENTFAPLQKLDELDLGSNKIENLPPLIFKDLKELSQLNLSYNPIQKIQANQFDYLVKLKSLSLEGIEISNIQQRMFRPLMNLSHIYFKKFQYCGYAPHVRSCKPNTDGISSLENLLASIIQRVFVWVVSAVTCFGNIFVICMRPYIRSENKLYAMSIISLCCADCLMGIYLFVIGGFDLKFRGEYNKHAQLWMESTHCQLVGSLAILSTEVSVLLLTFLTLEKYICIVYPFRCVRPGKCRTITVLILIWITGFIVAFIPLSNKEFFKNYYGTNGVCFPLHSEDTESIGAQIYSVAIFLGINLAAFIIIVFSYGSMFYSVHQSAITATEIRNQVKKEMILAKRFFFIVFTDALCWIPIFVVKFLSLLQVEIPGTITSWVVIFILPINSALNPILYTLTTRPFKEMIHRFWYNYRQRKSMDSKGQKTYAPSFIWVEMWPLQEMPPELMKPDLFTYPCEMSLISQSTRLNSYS
Procedure, shortened: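 HEK293 cells stably expressing human RXFP1 were exposed to compounds (0.010 nM–50 μM, 2% DMSO) for 30 min at room temperature in HBSS/HEPES buffer with 0.5 mM IBMX. Intracellular cAMP was measured by HTRF against a cAMP standard curve; EC50 from 4-parameter logistic fit.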

| Compound | EC50 |
| --- | --- |
| COCCOC1(C2CC(c3ccc(OC)c(C(=O)Nc4cc5nc(C)sc5cc4C(=O)Nc4ccc(F)c(C(F)(F)F)c4)c3)=NO2)CC1 (centres unmarked) [Example 12, N-(4-fluoro-3-(trifluorometh-yl)phenyl)-5-(2-methoxy-5-(5-(1-(2-meth-oxyethoxy)-cyclopropyl)-4,5-dihydro-isoxazol-3-yl)-benzamido)-2-methylbenzo [d]thiazole-6-carboxamide] | 290 nM |
| CC1(C)Cc2cc(C3=NOC4CC(CO)CC34)cc(C(=O)Nc3cc4c(cc3C(=O)Nc3ccc(F)c(C(F)(F)F)c3)OC(F)(F)O4)c2O1 (centres unmarked) [Example 100, 2,2-difluoro-N-(4-fluoro-3-(trifluoromethyl)phenyl)-6-(5-(5-(hydroxymethyl)-3a,5,6,6a-tetrahydro-4H-cyclopentafdlisoxazol-3-yl)-2,2-dimethyl-2,3-dihydrobenzofuran-7-carboxamido)benzo[d] [1,3]dioxole-5-carboxamide] | 8.4 nM |
| COc1ccc(C2=NOC3CC(CO)CC23)cc1C(=O)Nc1cc2c(cc1C(=O)Nc1ccc(F)c(C(F)(F)F)c1)OC(F)(F)O2 (centres unmarked) [Example 98] | 1.3 nM |
| COc1ccc(-c2cnc3n2CCN(C2COC2)C3)cc1C(=O)Nc1cc2c(cc1C(=O)Nc1ccc(F)c(C(F)(F)F)c1)OC(F)(F)O2 [Example 81, 2,2-difluoro-N-(4-fluoro-3-(trifluoromethyl)phenyl)-6-(2-methoxy-5-(7-(oxetan-3-yl)-5,6,7,8-tetrahydroimidazo[1,2-a]pyrazin-3-yl)benzamido)benzo[d] [1,3]dioxole-5-carboxamide] | 282 nM |
| COc1ccc(C2=NOC3(CCNC3)C2)cc1C(=O)Nc1cc2c(cc1C(=O)Nc1ccc(F)c(C(F)(F)F)c1)OC(F)(F)O2 (centres unmarked) [Example 66, 2,2-difluoro-N-(4-fluoro-3-(trifluoromethyl)phenyl)-6-(2-methoxy-5-(1-oxa-2,7-diazaspiro[4.4]non-2-en-3-yl)benzamido)benzo[d] [1,3]dioxole-5-carboxamide] | 338 nM |

The next lines start with the values.

| EC50 | Compound |
| --- | --- |
| 275 nM | COc1ccc(C2=NOC3COCC23)cc1C(=O)Nc1cc2c(cc1C(=O)Nc1ccc(F)c(C(F)(F)F)c1)OC(F)(F)O2 (centres unmarked) [Example 79] |
| 13 nM | COc1ccc(C2=NOC3CNCC23)cc1C(=O)Nc1cc2c(cc1C(=O)Nc1ccc(F)c(C(F)(F)F)c1)OC(F)(F)O2 (single isomer, unassigned) [Example 43, 2,2-difluoro-N-(4-fluoro-3-(trifluoromethyl)phenyl)-6-(2-methoxy-5-(3a,5,6,6a-tetrahydro-4H-pyrrolo[3,4-d]isoxazol-3-yl)benzamido)benzo[d][1,3]dioxole-5-carboxamide] |
| 322 nM | COc1ccc(C2CCN(C(=O)C(C)(C)O)C2)cc1C(=O)Nc1cc2c(cc1C(=O)Nc1ccc(F)c(C(F)(F)F)c1)OC(F)(F)O2 (single isomer, unassigned) [Example 55, 2,2-difluoro-N-(4-fluoro-3-(trifluoromethyl)phenyl)-6-(5-(1-(2-hydroxy-2-methylpropanoyl)pyrrolidin-3-yl)-2-methoxybenzamido) benzo[d][1,3]dioxole-5-carboxamide] |
| 127 nM | COc1ccc(-c2cc(C(C)(C)O)on2)cc1C(=O)Nc1cc2c(cc1C(=O)Nc1ccc(F)c(C(F)(F)F)c1)OC(F)(F)O2 [Example 74] |
| 487 nM | COc1ccc(C2=NOC(C(C)(C)O)C2)cc1C(=O)Nc1cc2c(cc1C(=O)Nc1ccc(F)c(C(F)(F)F)c1)OC(F)(F)O2 (single isomer, unassigned) [Example 77, 2,2-difluoro-N-(4-fluoro-3-(trifluoromethyl)phenyl)-6-(5-(5-(2-hydroxypropan-2-yl)-4,5-dihydroisoxazol-3-yl)-2-methoxybenzamido) benzo[d][1,3]dioxole-5-carboxamide] |

test system: not given; experiment: not given; conditions: intravenous (IV) formulation; cited from earlier work

| Compound | first-phase pharmacokinetic half-life |
| --- | --- |
| Serelaxin | 5.4 min |
